Laboratory results taken from patent publication US10294218B2 (VIROSTATICS SRL, priority 2012, dated 2019).
Where two headings read alike, the source gives them in different places.

Tests used:
[1] = tested on: laboratory strain of HIV-1; assay: Antiviral activity against HIV (AV), p24 in infected activated primary T cells; assay type: cell-based; conditions: for IC50: Human immunodeficiency virus 1, T-cell, read-out: AV50 (Inhibitory concentration 50% for antiviral activity); for antiviral and antiproliferative activity and cytotoxicity profile (in words): summary of AV, AP and cytotoxicity assays
Procedure: Activated primary T cells are infected with a laboratory strain of HIV-1, then cultured and exposed to different concentrations of the test compounds. HIV replication is analysed by measuring the viral protein p24 and expressed as percentage of untreated control. Inhibition of viral replication (AV) is then calculated (AV=100 minus the % p24 compared to control, AV of control=0%). Inhibitory concentration 50% for antiviral activity (AV50) is calculated.
(§1) In Tables 2, 3 and 4, ND means Not Determined.

Primary T cells = assay: Antiproliferative activity (AP), mitotic index by flow cytometry; assay type: cell-based; conditions: T-cell, read-out: AP50 (Inhibitory concentration 50% for antiproliferative capacity)
Procedure: Primary T cells are cultured and exposed to different concentrations of the test compounds. Cell proliferation is analysed by measuring mitotic index (ie the number of cell divisions a population of cells undergoes) through flow cytometry based techniques. Mitotic index is expressed as percentage of untreated control. Inhibition of cell proliferation (AP) is then calculated (AP=100 minus % mitotic index compared to control, AP of control=0%). Inhibitory concentration 50% for antiproliferative capacity (AP50) is calculated.
as §1

| Structure (SMILES) | IC50 [1] [nM] | also measured |
| --- | --- | --- |
| CCOc1cc(F)ccc1-c1cc(Nc2ccc(OC)c(N)c2)ncn1 [Example 73, N^1-[6-(2-Ethoxy-4-fluoro-phenyl)-pyrimidin-4-yl]-4-methoxy-benzene-1,3-diamine] | 0.2 | antiviral and antiproliferative activity and cytotoxicity profile (in words) [1]: good antiviral and antiproliferative activity and a good cytotoxicity profile |
| COc1ccccc1-c1cc(Nc2ccc(C(N)=O)c(Cl)c2)ncn1 [Example 132, 2-Chloro-4-[6-(2-methoxy-phenyl)-pyrimidin-4-ylamino]-benzamide] | 5000 |  |
| COc1ccc(F)cc1-c1cc(Nc2cc(F)c(OC)c(C(N)=O)c2)ncn1 [Example 140, 3-Fluoro-5-[6-(5-fluoro-2-methoxy-phenyl)-pyrimidin-4-ylamino]-2-methoxy-benzamide] | > 400 |  |
| COc1ccc(-c2cc(Nc3ccc(OC)c(N)c3)ncn2)cc1 [Example 66, 4-Methoxy-N^1-[6-(4-methoxy-phenyl)-pyrimidin-4-yl]-benzene-1,3-diamine] | > 10000 |  |
| CCOC(=O)c1cc(Nc2cc(-c3ccccc3OC)ncn2)ccc1Cl [Example 14, Ethyl 2-chloro-5-(6-(2-methoxyphenyl)pyrimidin-4-ylamino)benzoate] |  | IC50 (Primary T cells; primary T cells, mitotic index): > 500 nM |
| COc1ccccc1-c1cc(Nc2ccc(O)c([N+](=O)[O-])c2)ncn1 [Example 12, 4-(6-(2-methoxyphenyl)pyrimidin-4-ylamino)-2-nitrophenol] |  | IC50 (Primary T cells; primary T cells, mitotic index): > 1500 nM |
| CCOc1cc(F)ccc1-c1cc(Nc2ccc(OC)c(C(N)=O)c2)ncn1 [Example 130, 5-[6-(2-Ethoxy-4-fluoro-phenyl)-pyrimidin-4-ylamino]-2-methoxy-benzamide] | 16 | antiviral and antiproliferative activity and cytotoxicity profile (in words) [1]: good antiviral and antiproliferative activity and a good cytotoxicity profile |
| COc1ccccc1-c1cc(Nc2ccc(OC)c([N+](=O)[O-])c2)ncn1 [Example 11, N-(4-Methoxy-3-nitrophenyl)-6-(2-methoxyphenyl)pyrimidin-4-amine] |  | IC50 (Primary T cells; primary T cells, mitotic index): > 1500 nM |
| COc1ccc(Nc2cc(-c3cccc(F)c3OC)ncn2)cc1N [Example 81, N^1-[6-(3-Fluoro-2-methoxy-phenyl)-pyrimidin-4-yl]-4-methoxy-benzene-1,3-diamine] | 60 |  |
| CCOc1ccc(Nc2cc(-c3ccc(F)cc3OC)ncn2)cc1N [Example 105, 4-Ethoxy-N^1-[6-(4-fluoro-2-methoxy-phenyl)-pyrimidin-4-yl]-benzene-1,3-diamine] | 16 |  |
| COc1ccccc1-c1cc(Nc2ccc(Cl)c(C(=O)NN)c2)ncn1 [Example 7, 2-Chloro-5-(6-(2-methoxyphenyl)pyrimidin-4-ylamino)benzohydrazide] |  | IC50 (Primary T cells; primary T cells, mitotic index): 4000 nM |
| COc1ccc(Nc2cc(-c3ccc(F)cc3OC(C)C)ncn2)cc1N [Example 86, N^1-[6-(4-Fluoro-2-isopropoxy-phenyl)-pyrimidin-4-yl]-4-methoxy-benzene-1,3-diamine] | 100 |  |
| COc1cc(F)c(Nc2cc(-c3ccccc3OC)ncn2)cc1N [Example 92, 4-Fluoro-6-methoxy-N^3-[6-(2-methoxy-phenyl)-pyrimidin-4-yl]-benzene-1,3-diamine] | 250 |  |
| COc1ccccc1-c1cc(Nc2cc(F)c(OC)c(C(N)=O)c2)ncn1 [Example 137, 3-Fluoro-2-methoxy-5-[6-(2-methoxy-phenyl)-pyrimidin-4-ylamino]-benzamide] | > 2000 |  |
| COC(=O)c1ccc(Nc2cc(-c3ccccc3OC)ncn2)cc1OC [Example 133, 2-Methoxy-4-[6-(2-methoxy-phenyl)-pyrimidin-4-ylamino]-benzoic Acid Methyl Ester] | 7000 |  |
| COc1ccc(Nc2cc(-c3ccccc3OC)ncn2)cc1CNS(C)(=O)=O [Example 4, N-(2-Methoxy-5-(6-(2-methoxyphenyl)pyrimidin-4-ylamino)benzyl)methanesulfonamide] |  | IC50 (Primary T cells; primary T cells, mitotic index): 1500 nM |
| CCOc1ccc(F)cc1-c1cc(Nc2ccc(OC)c(C(N)=O)c2)ncn1 [Example 131, 5-[6-(2-Ethoxy-5-fluoro-phenyl)-pyrimidin-4-ylamino]-2-methoxy-benzamide] | < 80 | antiviral and antiproliferative activity and cytotoxicity profile (in words) [1]: good antiviral and antiproliferative activity and a good cytotoxicity profile |
| COc1ccc(Nc2cc(-c3cc(F)c(F)cc3OC)ncn2)cc1N [Example 83, N^1-[6-(4,5-Difluoro-2-methoxy-phenyl)-pyrimidin-4-yl]-4-methoxy-benzene-1,3-diamine] | 7 | antiviral and antiproliferative activity and cytotoxicity profile (in words) [1]: good antiviral and antiproliferative activity and a good cytotoxicity profile |
| CCOc1ccc(Nc2cc(-c3ccccc3OC)ncn2)cc1N [Example 101, 4-Ethoxy-N^1-[6-(2-methoxy-phenyl)-pyrimidin-4-yl]-benzene-1,3-diamine] | 60 |  |

| Structure (SMILES) | IC50 [1] [nM] | also measured |
| --- | --- | --- |
| COc1cccc(-c2cc(Nc3ccc(OC)c(N)c3)ncn2)c1 [Example 68, 4-Methoxy-N^1-[6-(3-methoxy-phenyl)-pyrimidin-4-yl]-benzene-1,3-diamine] | 1000 |  |
| COc1ccccc1-c1cc(Nc2ccc(Cl)c(C(=O)N3CCCC3)c2)ncn1 [Example 15, (2-Chloro-5-(6-(2-methoxyphenyl)pyrimidin-4-ylamino)phenyl)(pyrrolidin-1-yl)methanone] |  | IC50 (Primary T cells; primary T cells, mitotic index): > 500 nM |
| COc1cc(F)ccc1-c1cc(Nc2cc(F)c(OC)c(C(N)=O)c2)ncn1 [Example 138, 3-Fluoro-5-[6-(4-fluoro-2-methoxy-phenyl)-pyrimidin-4-ylamino]-2-methoxy-benzamide] | > 400 |  |
| COc1cc(F)ccc1-c1cc(Nc2cc(N)c(OC)c(F)c2)ncn1 [Example 90, 5-Fluoro-N^1-[6-(4-fluoro-2-methoxy-phenyl)-pyrimidin-4-yl]-4-methoxy-benzene-1,3-diamine] | > 400 |  |
| COc1ccc(Nc2cc(-c3ccccc3OC)ncn2)cc1CNc1ccccc1 [Example 34, N-(4-Methoxy-3-((phenylamino)methyl)phenyl)-6-(2-methoxyphenyl)pyrimidin-4-amine] |  | IC50 (Primary T cells): > 5000 nM |
| COc1ccccc1-c1cc(Nc2cc(N)c(OC)c(F)c2)ncn1 [Example 88, 5-Fluoro-4-methoxy-N^1-[6-(2-methoxy-phenyl)-pyrimidin-4-yl]-benzene-1,3-diamine] | > 400 |  |
| COc1ccccc1-c1cc(Nc2ccc(Cl)c(C(N)=O)c2)ncn1 [Example 44, 2-Chloro-5-(6-(2-methoxyphenyl)pyrimidin-4-ylamino)benzamide] |  | IC50 (Primary T cells; primary T cells, mitotic index): 5000 nM |
| COc1ccc(Nc2cc(-c3ccccc3OCc3ccccc3)ncn2)cc1N [Example 71, N^1-[6-(2-Benzyloxy-phenyl)-pyrimidin-4-yl]-4-methoxy-benzene-1,3-diamine] | 2000 |  |
| COc1ccccc1-c1cc(Nc2ccc(N3CCN(C)CC3)c(Cn3cnc4ccccc43)c2)ncn1 [Example 2, N-(3-((1H-Benzo[d]imidazol-1-yl)methyl)-4-(4-methylpiperazin-1-yl)phenyl)-6-(2-methoxyphenyl)pyrimidin-4-amine] |  | IC50 (Primary T cells; primary T cells, mitotic index): 400 nM |
| CCOc1cc(F)ccc1-c1cc(Nc2cc(F)c(OC)c(C(N)=O)c2)ncn1 [Example 139, 5-[6-(2-Ethoxy-4-fluoro-phenyl)-pyrimidin-4-ylamino]-3-fluoro-2-methoxy-benzamide] | 400 |  |
| CCOc1ccccc1-c1cc(Nc2cc(F)c(OC)c(C(N)=O)c2)ncn1 [Example 141, 5-[6-(2-Ethoxy-phenyl)-pyrimidin-4-ylamino]-3-fluoro-2-methoxy-benzamide] | 80 | antiviral and antiproliferative activity and cytotoxicity profile (in words) [1]: good antiviral and antiproliferative activity and a good cytotoxicity profile |
| CCOc1cc(F)ccc1-c1cc(Nc2cc(N)c(OC)c(F)c2)ncn1 [Example 89, N^1-[6-(2-Ethoxy-4-fluoro-phenyl)-pyrimidin-4-yl]-5-fluoro-4-methoxy-benzene-1,3-diamine] | > 400 |  |
| COc1ccc(Nc2cc(-c3ccccc3OC)ncn2)cc1C(=O)NN [Example 33, 2-Methoxy-5-(6-(2-methoxyphenyl)pyrimidin-4-ylamino)benzohydrazide] |  | IC50 (Primary T cells): 2000 nM |
| COc1ccc(Nc2cc(-c3ccc(F)cc3OC)ncn2)cc1O [Example 123, 5-[6-(4-Fluoro-2-methoxy-phenyl)-pyrimidin-4-ylamino]-2-methoxy-phenol] | 50 | antiviral and antiproliferative activity and cytotoxicity profile (in words) [1]: good antiviral and antiproliferative activity and a good cytotoxicity profile |
| CCOc1ccc(F)cc1-c1cc(Nc2cc(C(N)=O)c(OC)cc2F)ncn1 [Example 148, 5-[6-(2-Ethoxy-5-fluoro-phenyl)-pyrimidin-4-ylamino]-4-fluoro-2-methoxy-benzamide] | < 80 |  |
| COc1ccc(Nc2cc(-c3ccccc3O)ncn2)cc1N [Example 70, 2-[6-(3-Amino-4-methoxy-phenylamino)-pyrimidin-4-yl]-phenol] | > 10000 |  |
| COc1ccc(Nc2cc(-c3cc(F)ccc3OC)ncn2)cc1O [Example 122, 5-[6-(5-Fluoro-2-methoxy-phenyl)-pyrimidin-4-ylamino]-2-methoxy-phenol] | 80 |  |
| CCOc1ccccc1-c1cc(Nc2ccc(OC)c(N)c2)ncn1 [Example 62, N^1-[6-(2-Ethoxy-phenyl)-pyrimidin-4-yl]-4-methoxy-benzene-1,3-diamine] | < 80 | antiviral and antiproliferative activity and cytotoxicity profile (in words) [1]: good antiviral and antiproliferative activity and a good cytotoxicity profile |
| COc1ccc(Nc2cc(-c3ccccc3Oc3ccccc3)ncn2)cc1N [Example 77, 4-Methoxy-N^1-[6-(2-phenoxy-phenyl)-pyrimidin-4-yl]-benzene-1,3-diamine] | 10000 |  |
